In US7615359B2, “Copolymer 1 related polypeptides for use as molecular weight markers and for therapeutic use” (Yeda Research and Development Co., Ltd., priority 1998, dated 2009):

B1: AKKYAKKEKAYAKAKKAEAKAAKKAKAEAKKYAKAAKAEKKEYAAAEAKYKAEAAKAAAKEAAYEA (peptide)
chain: AKKYAKKEKAYAKAKKAEAKAAKKAKAEAKKYAKAAKAEKKEYAAAEAKYKAEAAKAAAKEAAYEA
B2: AKKYAKKAEKAYAKKAKAAKEKKAYAKKEAKAYKAAEAKKKAKAEAKKYAKEAAKAKKEAYKAEAKKYAKAAKAEKKEYAAAEAKKAEAAKAYKAEAAKAAAKEAAYEA (peptide)
chain: AKKYAKKAEKAYAKKAKAAKEKKAYAKKEAKAYKAAEAKKKAKAEAKKYAKEAAKAKKEAYKAEAKKYAKAAKAEKKEYAAAEAKKAEAAKAYKAEAAKAAAKEAAYEA
notes: reversed-phase fraction 2 designated TV-109
B3: AKKYAKKEKAYAKKAEKAAKKAEAKAYKAAEAKKKAKAEAKKYAKAAKAEKKEYAAAEAKYKAEAAKKAYKAEAAKAAAKEAAYEA (peptide)
chain: AKKYAKKEKAYAKKAEKAAKKAEAKAYKAAEAKKKAKAEAKKYAKAAKAEKKEYAAAEAKYKAEAAKKAYKAEAAKAAAKEAAYEA
B4: AKKYAKKEKAYAKKAEKAAKKAEAKAYKAAEAKKKAKAEAKKYAKAAKAEKKEYAAAEAKYKAEAAKAAAKEAAYEA (peptide)
chain: AKKYAKKEKAYAKKAEKAAKKAEAKAYKAAEAKKKAKAEAKKYAKAAKAEKKEYAAAEAKYKAEAAKAAAKEAAYEA

How the values were obtained:
[1] = system: SC-103 human Cop 1 specific T cell clone; assay: Proliferation of Cop 1 specific T cell line (3H-thymidine uptake); details: 10 µg antigen; relative to Cop 1
[2] = system: anti-Cop-1 (3-1-45) monoclonal antibody; assay: RIA: binding of anti-Cop 1 monoclonal antibody to coated antigen; details: relative to Cop 1 reference standard; 2 µg/ml coating antigen
[3] = system: L-22-1 T cell clone; assay: Proliferation of Cop 1 specific T cell line (3H-thymidine uptake); details: 10 µg antigen; relative to Cop 1
[4] = system: anti-Cop-1 (5-7-2) monoclonal antibody; assay: RIA: binding of anti-Cop 1 monoclonal antibody to coated antigen; details: relative to Cop 1 reference standard; 2 µg/ml coating antigen
[5] = system: anti-Cop-1 (3-3-9) monoclonal antibody; assay: as above; details: relative to Cop 1 reference standard; 2 µg/ml coating antigen
[6] = system: BALB/c-Ts-Cop-1 T cell line; assay: Proliferation of Cop 1 specific T cell line (3H-thymidine uptake); details: 10 µg antigen; relative to Cop 1
[7] = system: experimental allergic encephalomyelitis (EAE) in (SJL/JxBALB/c)FI mice; assay: Blocking of experimental allergic encephalomyelitis (EAE) by injection with complete adjuvant; type: in vivo, mouse; details: for Incidence of EAE: antigen included in the encephalitogenic inoculum, animals with EAE/animals; for % Blocking: blocking of EAE vs control inoculum; for Mean Score: disease score 0 (healthy) to 5 (dead); for Mean Onset: animals not protected, onset = day of disease score of at least 1
Description: Blocking of Experimental Allergic Encephalomyelitis—To test the physiological activity of TV-markers, protection from experimental allergic encephalomyelitis (EAE) was investigated in mice. Injection of Copolymer 1 in complete Freund's adjuvant together with the encephalitogen can block EAE essentially as described in Aharoni et al., 17 EUR. J. IMMUNOL. 23 (1993). Other researchers have observed that the therapeutic effect of Copolymer 1 in multiple sclerosis patients is also associated with the induction of TH2 cells. Lahat et al., 244 J. NEUROL. 129 (1997). In this example, EAE is blocked by different polypeptides of the present invention.
Pertussis toxin (0.25 ml, 250 ng, Sigma) is injected intravenously, immediately after and 48 hr later. […] 2156 (1979).
EAE blocking by injection with complete adjuvant—Each antigen being tested was included in the encephalitogenic inoculum. […] Also shown is the mean onset of EAE in animals which were not protected. Disease intensity is scored daily in mice with a score of zero (0=healthy) to five (5=dead).

Molecule | 3H-Thymidine incorporation, % Cop1, SC-103 [1] [%] | Binding of mAb anti-Cop-1 (3-1-45), % Cop1 binding [2] [%] | 3H-Thymidine incorporation, % Cop1, L-22-1 [3] [%] | Binding of mAb anti-Cop-1 (5-7-2), % Cop1 binding [4] [%] | Binding of mAb anti-Cop-1 (3-3-9), % Cop1 binding [5] [%] | 3H-Thymidine incorporation, % Cop1, BALB/c-Ts-Cop-1 [6] [%] | Incidence of EAE [7] | % Blocking [7] [%] | Mean Score [7] | Mean Onset [7] [days]
AKKYAKKEKAYAKKAEKAAKKAEAKAYKAAEAKKKAEAKYKAEAAKAAAKEAAYEA [TV-56] | 0 | 6 | 0 | 91 | 2 | 59 |  |  |  | 
glatiramer acetate [compound 03494, reference compound] |  |  |  |  |  |  | 0/10 | 100 | 0 | 
glatiramer acetate [compound 55296, reference compound] | 81 | 83 | 106 | 82 | 91 | 110 |  |  |  | 
AKKYAKKAKAEKAKKAYKAAEAKKAAKYEKAAAEKAAAKEAAYEA [TV-45] |  |  |  |  |  |  | 0/10 | 100 |  | 
AKKYAKKEKAAKKAYKKEAKAKAAEAAAKEAAYEA [TV-35] | 0 | 0 | 0 | 1 | 0 | 28 |  |  |  | 
glatiramer acetate [compound 55396, reference compound] | 80 | 85 | 105 | 86 | 90 | 105 | 0/10 | 100 | 0 | 
B1 |  |  |  |  |  |  | 6/10 | 40 |  | 11.7
B2 |  |  |  |  |  |  | 0/10 | 100 |  | 
B3 | 0 | 6 | 1 | 76 | 2 | 44 | 3/10 | 70 |  | 12.0
B4 | 0 | 9 | 1 | 37 | 6 | 52 | 1/9 | 89 |  | 14.0
